Measurements published in patent US20170042989A1, “PHOTOSENSITIZED TRYPANOSOMATIDS AND VACCINE COMPOSITIONS THEREOF” (ROSALIND FRANKLIN UNIVERSITY OF MEDICINE AND SCIENCE, priority 2015, published 2017).

How the values were obtained:
Leishmania tropica [1] = assay: Leishmania uptake of PCs by fluorescence microscopy; assay type: cell-based; conditions: fluorescent microscopy, Cy5 filter, exposure in the dark
Procedure: (§1) Leishmania were suspended to 5×10^7-10^8 cells ml^−1 in HBSS-BSA for exposure to serial dilutions of PCs 1-4 in the dark overnight. Controls included cells exposed to diluent alone. J774 macrophages were treated as monolayer in HBSS-BSA or culture medium under otherwise the same conditions. All cultures were kept in the dark for various time periods up to 24 hrs.
Nikon Eclipse 80i and TE2000-S microscopes with CCD cameras were used with Metamorphosis (version 6.1) or NIS Elements version AR 4.20.01 software for image capture and analysis. Concentrated cells (˜3 μl) on a glass slide under an 18 mm^2 glass coverslip were first scanned under phase contrast to localize cells. […] GFP/CFSE fluorescent Leishmania were further examined by using the FITC filter set. Images captured under different settings were merged by using the software programs mentioned. The filter sets (Chroma Technology Co., Brattleboro, Vt.) used were: (1) HQ620/60 (620-nm exciter), Q660LP (660-nm dichroic), and HQ700/80 (700-nm emitter) for phthalocyanines; and (2) HQ480/40 (480-nm exciter), Q505LP (505-nm dichroic), and HQ535/50 (535-nm emitter) for GFP and CFSE.

Leishmania tropica [2] = assay: Microscopy of Leishmania photolysis after PC sensitization and red light; assay type: cell-based; conditions: PC1/PC2: followed by red light; PC3/PC4: with or without red light
Procedure: as §1
Control and PC-sensitized Leishmania were washed and suspended in HBSS-BSA. The cell suspensions in 24-well culture plates and monolayers of J774 macrophages in 25 cm^2 TC flasks were exposed from the bottom to red light (wavelengths >650 nm) via a red filter (Smith-Victor Co., Barlett, Ill., USA; part #650021) over a light box for 20-30 min at a fluence of 1-2 J cm^2.
Nikon Eclipse 80i and TE2000-S microscopes with CCD cameras were used with Metamorphosis (version 6.1) or NIS Elements version AR 4.20.01 software for image capture and analysis. Concentrated cells (˜3 μl) on a glass slide under an 18 mm^2 glass coverslip were first scanned under phase contrast to localize cells. […] GFP/CFSE fluorescent Leishmania were further examined by using the FITC filter set. Images captured under different settings were merged by using the software programs mentioned. […]

triethylene glycol substituted Zn(II)-phthalocyanine [PC4]
uptake by Leishmania (PC fluorescence in cells) (Leishmania tropica [1]): no uptake | motility and structural integrity after PC sensitization (Leishmania tropica [2]): retained their motility and cellular integrity
